This series is described as follows: Human HepG2 cell viability assay in 384 well format. To be noted: HepG2 cells, read-out: Inhibition. More on the design: dose 125 nL, time 70.5 hour; concentration not given beside the values. Format: toxicity, cell-based.
Take `COC(=O)c1ccc(C(=O)NCc2ccc(Br)cc2)cn1`: the cytotoxicity at 70.5 h was -2.31%.

`Cn1cnc(-c2nc(C(=O)NCCN3CCOCC3)c3ccccn23)c1`: the cytotoxicity at 70.5 h is -2.81%.

On to `Cn1cnc(-c2nc(C(=O)NCCN3CCCC3)c3ccccn23)c1`, for which the cytotoxicity at 70.5 h is -5.67%.

Take `CCC(=O)N1CCc2onc(CNS(C)(=O)=O)c2C1`: the cytotoxicity at 70.5 h was 9.89%.

Regarding `CCn1c2c(ccc1=O)CC(NCc1cnn(C)c1)CC2` (stereo not drawn), the cytotoxicity at 70.5 h was -4.95%.

For `CS(=O)(=O)NCc1noc2c1CN(C(=O)C1CC1)CC2`, the cytotoxicity at 70.5 h was -7.86%.

For `CN1CCN(Cc2cn3c(n2)CN(Cc2ccccn2)CC3)CC1`, the cytotoxicity at 70.5 h was -9.35%.

For the compound `CCOCC1c2c(ncn2C)CCN1C(=O)c1ccoc1` (stereo not drawn), the cytotoxicity at 70.5 h is -17.6%.

As to `COC[C@@H]1CCC[C@@]12CN(C(=O)C1CCOCC1)CCO2`, the cytotoxicity at 70.5 h was -7.08%.

With `CCC(=O)N1CCC2(CC1)CC(CC(=O)N(C)C)c1ccc(F)cc12` (stereo not drawn), the cytotoxicity at 70.5 h was -1.89%.

With `CN1CCC2(CC1)CN(C(=O)c1cccnc1)c1ccc(Cl)cc12`, the cytotoxicity at 70.5 h was -10.6%.

With `CS(=O)(=O)N1CCC2(CC1)CC(NCc1ccccn1)c1ccccc12` (stereo not drawn), the cytotoxicity at 70.5 h was -9.6%.

Turning to `CCOCc1cnc2n1CCN(C(=O)c1cccc3c1OCCO3)C2C` (stereo not drawn), the cytotoxicity at 70.5 h is -5.93%.

Take `CC(C)N1Cc2c(C(=O)N3CCN(C)CC3)nn(C)c2C1`: the cytotoxicity at 70.5 h is -0.433%.

As to `COCC(=O)NCc1cc(=O)n2c(n1)CN(Cc1cccs1)CCC2`, the cytotoxicity at 70.5 h was -6.99%.

As for `O=C(COc1ccc(F)cc1)N1CCO[C@H]2[C@@H](OCC3CC3)CC[C@@H]21`, the cytotoxicity at 70.5 h was -6.33%.

Turning to `CO[C@@H]1CC[C@H]2[C@H]1OCCN2C(=O)COc1ccc(C)cc1`, the cytotoxicity at 70.5 h is -4.98%.

As for `CCC1=N[C@@]2(CC[C@@H]3CN(CC)C[C@@H]32)C(=O)N1C`, the cytotoxicity at 70.5 h came to 7.11%.

Take `O=C(c1ncccn1)N1C[C@@H]2COC[C@]2(COc2cccnc2)C1`: the cytotoxicity at 70.5 h is -4.57%.

For the compound `CO[C@H]1CC[C@H]2[C@H]1OCCN2C(=O)CCOc1ccccc1`, the cytotoxicity at 70.5 h is -2.84%.

Turning to `CCN1CC[C@@H]2OC[C@H](C(=O)NCc3cccs3)C[C@@H]2C1`, the cytotoxicity at 70.5 h was 45.7%.

On to `CN(C)C(=O)CN1CCC2(COCc3cnc(-c4ccccc4)nc32)C1` (stereo not drawn), for which the cytotoxicity at 70.5 h is -6.03%.

On to `Cn1ccc(-c2cc(C(=O)N3CCCCC3)c3ccccn23)n1`, for which the cytotoxicity at 70.5 h was determined as 4.75%.

Turning to `O=C(N[C@@H]1CN(Cc2ccco2)[C@@H]2CCCO[C@@H]21)c1cscn1`, the cytotoxicity at 70.5 h was -5.42%.

For `O=C(C1CCC1)N1CC[C@@H]2CN(Cc3cccnc3)S(=O)(=O)[C@@H]2CC1`, the cytotoxicity at 70.5 h is -4.67%.

Consider `COCC(=O)N1CC[C@@H]2CN(Cc3cccnc3)S(=O)(=O)[C@@H]2CC1`, for which the cytotoxicity at 70.5 h was -2.46%.

As to `CS(=O)(=O)NC[C@]12COC[C@H]1CN(C(=O)N1CCCC1)C2`, the cytotoxicity at 70.5 h is -4.24%.

For the compound `O=C(c1ccccc1)N1CC[C@H]2C[C@@H](c3nnc(C4CC4)o3)O[C@@H]2C1`, the cytotoxicity at 70.5 h was -4.88%.

Take `CS(=O)(=O)NC[C@]12COC[C@H]1CN(C(=O)CC1CCCC1)C2`: the cytotoxicity at 70.5 h was -13.4%.

As to `Cc1ccoc1C(=O)N1CC[C@H]2C[C@H](c3nnc(C4CC4)o3)O[C@@H]2C1`, the cytotoxicity at 70.5 h is -11.4%.

As to `Cc1cccc(CO[C@@H]2CC[C@H]3[C@H]2OCCN3Cc2ccoc2)n1`, the cytotoxicity at 70.5 h is -11.3%.

In the case of `O=C(c1ccoc1)N1CC[C@H]2C[C@@H](c3nnc(C4CC4)o3)O[C@@H]2C1`, the cytotoxicity at 70.5 h was -12%.

As for `O=C(c1ccccc1)N1CC[C@H]2C[C@H](c3nnc(C4CC4)o3)O[C@@H]2C1`, the cytotoxicity at 70.5 h was -9.97%.

Consider `CN(CCO)C[C@@H]1CN(C(=O)Cc2ccc3ccccc3c2)C[C@@H]1CO`, for which the cytotoxicity at 70.5 h is -4.17%.

On to `COCc1nc(CNC2CCCC(C)(C)C2)no1` (stereo not drawn), for which the cytotoxicity at 70.5 h was -9.03%.

`CC1(C)C(C(=O)NCCC2CN(Cc3c[nH]cn3)CCO2)C1(C)C` (stereo not drawn): the cytotoxicity at 70.5 h was -13.9%.

For `Cc1ccc(Sc2ccc(CN3CCC4(CCCNC4=O)C3)o2)cc1` (stereo not drawn), the cytotoxicity at 70.5 h came to 5.69%.

As for `Cc1nnc(SCCCNC(=O)Nc2ccc3c(c2)OCO3)s1`, the cytotoxicity at 70.5 h worked out at 11.4%.

With `CCC(=O)N1CCCC(c2nc(-c3cccnn3)no2)C1` (stereo not drawn), the cytotoxicity at 70.5 h was -0.455%.

As for `Cc1cc(CN2C[C@H]3CC[C@@H]2CN(Cc2c(C)noc2C)C3)ccc1F`, the cytotoxicity at 70.5 h was -5.96%.

Take `Cc1cnc(CNC(=O)CC2CCc3ccccc32)cn1` (stereo not drawn): the cytotoxicity at 70.5 h is -13.9%.

In the case of `CSCCC(O)C(=O)N1CCC(OCc2cccnc2)CC1` (stereo not drawn), the cytotoxicity at 70.5 h came out at 16.3%.

`Cc1nn(CC(=O)O)c(C)c1NS(=O)(=O)c1cc2ccccc2s1`: the cytotoxicity at 70.5 h was found to be 24.3%.

Regarding `FC(F)(F)CCc1ccnc(N[C@H]2CC[C@H](n3cnnc3)CC2)n1`, the cytotoxicity at 70.5 h is -9.96%.

For the compound `O=C(NCCN1CCCC(CO)C1)c1ccc2sccc2c1` (stereo not drawn), the cytotoxicity at 70.5 h is -6.22%.

As to `CN(C)C(C(=O)NCC(F)(F)F)c1cccc(F)c1` (stereo not drawn), the cytotoxicity at 70.5 h is -2.03%.

For the compound `Cc1nn(C)cc1C(C)Nc1ncnc2sccc12` (stereo not drawn), the cytotoxicity at 70.5 h was 19.1%.

For the compound `CNc1nc(N2CCN(CC=C(C)C)C(CCO)C2)nc2c1CCC2` (stereo not drawn), the cytotoxicity at 70.5 h is 6.77%.

Consider `c1ccc(OCc2noc(CN3CCC(N4CCSCC4)CC3)n2)cc1`, for which the cytotoxicity at 70.5 h is -5.9%.

Consider `NC1CCCCN(Cc2cc(-c3ccccc3OC(F)(F)F)no2)C1` (stereo not drawn), for which the cytotoxicity at 70.5 h is -8.03%.

With `Cc1nn(C)c2ncnc(NCC(O)CN3CCCCC3)c12` (stereo not drawn), the cytotoxicity at 70.5 h came out at 21.5%.

Take `CCN(C)C[C@@H]1CN(Cc2cnc3c(S(C)(=O)=O)cnn3c2)C[C@@H]1CO`: the cytotoxicity at 70.5 h turned out to be 1.07%.

Consider `CCC(C(=O)N(Cc1ccccn1)C1CCCCC1)n1cccn1` (stereo not drawn), for which the cytotoxicity at 70.5 h is 22.3%.

With `COc1ccccc1N1CCC(N2CCOCC(CO)C2)CC1` (stereo not drawn), the cytotoxicity at 70.5 h was -6.73%.

Turning to `CN(CCCc1cnn(C)c1)C(=O)Nc1cccc2[nH]nnc12`, the cytotoxicity at 70.5 h is -7.81%.

Turning to `CCn1ncc2[nH]c(-c3cc4c(cc3OC)OCO4)nc21`, the cytotoxicity at 70.5 h is -4.87%.

Consider `CCOc1ccc(-c2ccnc(COc3ccccc3)n2)cc1C(=O)O`, for which the cytotoxicity at 70.5 h was -0.267%.

Regarding `CC(Cn1cncn1)NCc1csc2c1CCCC2` (stereo not drawn), the cytotoxicity at 70.5 h is -0.547%.

For `COc1ccc(/C=C/CN2CCCC3(C2)CN(C)C(=O)O3)cc1` (stereo not drawn), the cytotoxicity at 70.5 h is 11.6%.

For `Cc1ccccc1C(C(=O)N(Cc1cnn(C)c1)CC(C)C)N(C)C` (stereo not drawn), the cytotoxicity at 70.5 h was -9.52%.

Take `c1ccc(COC[C@H]2CCC[C@@]23CNCCO3)nc1`: the cytotoxicity at 70.5 h worked out at 15.4%.

On to `c1ccc(COC[C@@H]2CCC[C@@]23CNCCO3)nc1`, for which the cytotoxicity at 70.5 h stood at 14.4%.

On to `COC[C@@]12CCC[C@@H]1CN(C(=O)Cc1ccccn1)C2`, for which the cytotoxicity at 70.5 h amounted to 9.13%.

For `CCOC1COC2(CCN(CC3CCOCC3)CC2)C1` (stereo not drawn), the cytotoxicity at 70.5 h worked out at 14.7%.

For `CO[C@H]1CN(CC2CCOCC2)[C@@H]2CCCO[C@H]12`, the cytotoxicity at 70.5 h is -7.16%.

Turning to `CS(=O)(=O)N1CCC2(CC1)CC(NCC1CC1)c1ccccc12` (stereo not drawn), the cytotoxicity at 70.5 h was -7.3%.

For `O=S(=O)(C1CC1)N1CCc2ncnc(N3CCCC3)c2CC1`, the cytotoxicity at 70.5 h was -14.9%.

For the compound `COC1COC2(CCN(CC3CC3)CC2)C1` (stereo not drawn), the cytotoxicity at 70.5 h is -12.5%.

Consider `Cn1cc(CNC2CC3(CCN(S(C)(=O)=O)CC3)c3ccccc32)cn1` (stereo not drawn), for which the cytotoxicity at 70.5 h was -11.7%.

Take `CC(=O)N1CCC2(CC1)CN(C(=O)c1cccnc1)c1ccc(F)cc12`: the cytotoxicity at 70.5 h was -3.83%.

For the compound `CCO[C@H]1CN(CC2CCOCC2)[C@@H]2CCCO[C@H]12`, the cytotoxicity at 70.5 h was 9.78%.

Regarding `O=C(N1CCCC1)N1C[C@H]2CCC[C@@]2(COCc2ccccn2)C1`, the cytotoxicity at 70.5 h was -10.8%.

With `Cc1cccc(CN2C[C@@H]3COC[C@]3(CNC(=O)C3CC3)C2)c1`, the cytotoxicity at 70.5 h is -9.63%.

Consider `NC(=O)N1CCC2(CCN(C(=O)c3cccnc3)CC2)C1`, for which the cytotoxicity at 70.5 h came out at 0.925%.

As to `Cc1ccc(CN2CCC3(CC2)CCN(C(=O)c2cccnc2)C3)o1`, the cytotoxicity at 70.5 h was -5.87%.

In the case of `COCCN1CCCn2c(nc(CNC(=O)COC)cc2=O)C1`, the cytotoxicity at 70.5 h is -2.45%.

Take `CCC(C)N1Cc2c(C(=O)N3CCOCC3)nn(C)c2C1` (stereo not drawn): the cytotoxicity at 70.5 h is -6.15%.

As to `COCC(=O)NCc1cc(=O)n2c(n1)CN(Cc1ccccc1)CCC2`, the cytotoxicity at 70.5 h was 2.31%.

For the compound `O=C(C1CCC1)N1CC[C@H](O)[C@@H]1Cc1cccnc1`, the cytotoxicity at 70.5 h amounted to 1.53%.

As to `O=C(C1=CCCC1)N1C[C@@H]2COC[C@]2(COc2ncccc2F)C1`, the cytotoxicity at 70.5 h amounted to 6.81%.

As to `CCO[C@@H]1CC[C@H]2[C@H]1OCCN2Cc1ccoc1`, the cytotoxicity at 70.5 h was -1.39%.

`CN1CCO[C@@H]2CN(C(=O)Cc3cccs3)CC[C@@H]2C1`: the cytotoxicity at 70.5 h was -2.05%.

Regarding `CN(C)C1CCN(C(=O)c2cc(-c3ccn(C)n3)n3ccccc23)CC1`, the cytotoxicity at 70.5 h was -6.13%.

As for `CC(C)CN1CCC2(COCc3cnc(-c4ccccc4)nc32)C1` (stereo not drawn), the cytotoxicity at 70.5 h was -3.09%.

With `Cn1cc(CNC2CCc3c(ccc(=O)n3Cc3cccnc3)C2)cn1` (stereo not drawn), the cytotoxicity at 70.5 h is -14.4%.

On to `COCC1CC2(CCN(c3ccccn3)CC2)CN1C(C)C` (stereo not drawn), for which the cytotoxicity at 70.5 h is -11.6%.

`c1ccc(CO[C@@H]2CN(Cc3nccs3)[C@@H]3COC[C@@H]32)nc1`: the cytotoxicity at 70.5 h is -7.21%.

In the case of `c1cncc(CO[C@H]2CN(Cc3ccco3)[C@@H]3COC[C@H]23)c1`, the cytotoxicity at 70.5 h is -3.78%.

Take `CN(Cc1cccnc1)[C@@H]1CN(C(=O)c2ccno2)[C@@H]2CCCO[C@H]12`: the cytotoxicity at 70.5 h was -5.28%.

Take `COCCN1CCc2c(c(COc3cccnc3)nn2C)C1`: the cytotoxicity at 70.5 h is -8.79%.

As to `CN1CCN(Cc2cn3c(n2)CN(Cc2ccc(F)cc2)CC3)CC1`, the cytotoxicity at 70.5 h was -9.1%.

Take `CN1CCN(Cc2cn3c(n2)CN(Cc2cccc(F)c2)CC3)CC1`: the cytotoxicity at 70.5 h is -11.9%.

In the case of `FC1(F)CCN(Cc2ccccn2)CC12CCN(c1cnccn1)C2` (stereo not drawn), the cytotoxicity at 70.5 h was -5.08%.

Values taken from ChEMBL document CHEMBL3507680, “University of Dundee, Gates Library screen for HepG2 cell viability”.
